In patent US6824760B2, “Imaging agents, precursors thereof and methods of manufacture” (priority 2001, dated 2004):
Where two headings read alike, the source gives them in different places.

Assays:
[1] = system: Fischer 344 tumor-bearing rats; settings: for Blood / Bone / Heart / Intestine / Kidney / Liver / Lung / Muscle / Spleen / Stomach / Thyroid / Tumor / Tumor/Blood / Tumor/Lung / Tumor/Muscle: breast tumor-bearing Fischer 344 rats, 10 μCi/rat i.v.; for Tumor/Blood / Tumor/Lung / Tumor/Muscle: ratio
Method: Biodistribution studies were conducted at 30 min, 2 and 4 hours.

[2] = system: breast cancer cells, cell line 13762; experiment: In vitro cellular uptake assay; type: cell-based
Method: After 0.5-4 hours incubation, the cells were washed with phosphate buffered saline 3 times and followed by trypsin to loosen the cells. The cells were counted by a gamma counter.

[3] = tumor-bearing rats, 30 min, 2 and 4 hours

CC(N)(Cc1ccc(OCCC[18F])cc1)C(=O)O (stereo not drawn) [^18F-FPAMT, 3-^18F-fluoropropyl-α-methyltyrosine]
Blood ([1]; 30 min): 0.638 ± 0.021 % of injected dose per gram of tissue weight
Bone ([1]; 30 min): 0.447 ± 0.045 % of injected dose per gram of tissue weight
Heart ([1]; 30 min): 0.445 ± 0.019 % of injected dose per gram of tissue weight
Intestine ([1]; 30 min): 0.838 ± 0.058 % of injected dose per gram of tissue weight
Kidney ([1]; 30 min): 8.060 ± 0.101 % of injected dose per gram of tissue weight
Liver ([1]; 30 min): 6.542 ± 1.142 % of injected dose per gram of tissue weight
Lung ([1]; 30 min): 4.812 ± 0.457 % of injected dose per gram of tissue weight
Muscle ([1]; 30 min): 0.318 ± 0.043 % of injected dose per gram of tissue weight
Spleen ([1]; 30 min): 0.404 ± 0.023 % of injected dose per gram of tissue weight
Stomach ([1]; 30 min): 0.440 ± 0.052 % of injected dose per gram of tissue weight
Thyroid ([1]; 30 min): 0.730 ± 0.126 % of injected dose per gram of tissue weight
Tumor ([1]; 30 min): 0.454 ± 0.016 % of injected dose per gram of tissue weight
Blood ([1]; 2 h): 0.298 ± 0.032 % of injected dose per gram of tissue weight
Bone ([1]; 2 h): 1.256 ± 0.117 % of injected dose per gram of tissue weight
Heart ([1]; 2 h): 0.219 ± 0.024 % of injected dose per gram of tissue weight
Intestine ([1]; 2 h): 0.627 ± 0.209 % of injected dose per gram of tissue weight
Kidney ([1]; 2 h): 7.721 ± 1.027 % of injected dose per gram of tissue weight
Liver ([1]; 2 h): 3.587 ± 0.500 % of injected dose per gram of tissue weight
Lung ([1]; 2 h): 0.541 ± 0.084 % of injected dose per gram of tissue weight
Muscle ([1]; 2 h): 0.154 ± 0.017 % of injected dose per gram of tissue weight
Spleen ([1]; 2 h): 0.215 ± 0.029 % of injected dose per gram of tissue weight
Stomach ([1]; 2 h): 0.190 ± 0.024 % of injected dose per gram of tissue weight
Thyroid ([1]; 2 h): 0.860 ± 0.045 % of injected dose per gram of tissue weight
Tumor ([1]; 2 h): 0.312 ± 0.024 % of injected dose per gram of tissue weight
Blood ([1]; 4 h): 0.081 ± 0.007 % of injected dose per gram of tissue weight
Bone ([1]; 4 h): 1.502 ± 0.214 % of injected dose per gram of tissue weight
Heart ([1]; 4 h): 0.054 ± 0.007 % of injected dose per gram of tissue weight
Intestine ([1]; 4 h): 0.148 ± 0.015 % of injected dose per gram of tissue weight
Kidney ([1]; 4 h): 1.467 ± 0.236 % of injected dose per gram of tissue weight
Liver ([1]; 4 h): 0.930 ± 0.049 % of injected dose per gram of tissue weight
Lung ([1]; 4 h): 0.105 ± 0.008 % of injected dose per gram of tissue weight
Muscle ([1]; 4 h): 0.055 ± 0.012 % of injected dose per gram of tissue weight
Spleen ([1]; 4 h): 0.067 ± 0.009 % of injected dose per gram of tissue weight
Stomach ([1]; 4 h): 0.070 ± 0.002 % of injected dose per gram of tissue weight
Thyroid ([1]; 4 h): 1.220 ± 0.260 % of injected dose per gram of tissue weight
Tumor ([1]; 4 h): 0.069 ± 0.003 % of injected dose per gram of tissue weight
Tumor/Blood ([1]; 30 min): 0.712 ± 0.013
Tumor/Lung ([1]; 30 min): 0.095 ± 0.006
Tumor/Muscle ([1]; 30 min): 1.464 ± 0.138
Tumor/Blood ([1]; 2 h): 1.079 ± 0.171
Tumor/Lung ([1]; 2 h): 0.599 ± 0.079
Tumor/Muscle ([1]; 2 h): 2.057 ± 0.176
Tumor/Blood ([1]; 4 h): 0.853 ± 0.036
Tumor/Lung ([1]; 4 h): 0.658 ± 0.081
Tumor/Muscle ([1]; 4 h): 1.322 ± 0.341
Tumor/blood ratio as a function of time [1, 3]: increased as a function of time
Tumor/muscle ratio as a function of time [1, 3]: increased as a function of time
bone uptake (suggesting in vivo defluorination) ([1]; tumor-bearing rats, 2 hours): increased bone uptake
cellular uptake compared with ^18F-FDG ([2]; breast cancer cell line 13762, 0.5 and 2 hours incubation): slightly higher uptake than ^18F-FDG
cellular uptake as a function of time ([2]; breast cancer cell line 13762, 2 μCi, 0.5-4 hours incubation): increased uptake
